Test results: paper PMC10419416, “Fighting Pseudomonas aeruginosa Infections: Antibacterial and Antibiofilm Activity of D-Q53 CecB, a Synthetic Analog of a Silkworm Natural Cecropin B Variant” (International Journal of Molecular Sciences, 2023)
Read-outs that look alike come from different tables or passages of the source. Non-standard residues stand in square brackets, D forms with d. Residues, ends and D or L forms follow the SMILES beside them. No end group written: not given here.

Columns and labels:
[1] = test system: CCD-34Lu lung fibroblasts; assay: in vitro; type: cell-based, human
Procedure: (§1) The peptide cytotoxicity against human cells was evaluated using CCD-34Lu-lung fibroblasts and A549-lung adenocarcinoma cells. Moreover, 6 × 10^3 cells in DMEM medium added with 10% FBS were seeded in 96-well sterile plates. After 24 h, cells were incubated with increasing concentrations of peptide (final concentrations of 5, 10, 25, 50, and 100 µM, with an additional concentration of 200 µM in CCD-34Lu) for 24 h at 37 °C (three replicates per condition). Cell viability was measured by removing the exhausted medium, adding 100 µL of DMEM and 20 µL of the MTS solution (Promega). Plates were incubated at 37 °C for 20 min until the complete conversion of the compound. The absorbance was measured at 492 nm using a microplate reader. Cell viability was calculated using the formula: Viability (%)=ODCecB−OD0/ODCtrl−OD0×100, where ODCecB is the OD in the presence of the peptide, ODCtrl is the OD of cells without the peptide, and OD0 is the background absorbance (wells with only medium and MTS compound). The experiment was performed at least twice.

[2] = in vitro; type: cell-based, human
Procedure: as §1

[3] = test system: A549 lung adenocarcinoma cells; assay: in vitro; type: cell-based, human
Procedure: as §1

[4] = test system: T1, P. aeruginosa elastase; assay: Enzymatic digestion with P. aeruginosa elastase, RP-HPLC; type: in vitro ADME; details: isolated enzyme elastase; peptide 1 mg/mL in 10 mM Tris-HCl pH 7.5, 20 U P. aeruginosa elastase, 37 °C, 30 min, RP-HPLC C18 peak integration; read-out: % of full-length peptide
T1 construct: purchased Elastin Products Company
Procedure: L- and D-Q53 CecB peptides, as well as the human LL-37 peptide (Merck, Burlington, MA, USA), were dissolved in 10 mM Tris-HCl, pH 7.5, at a final concentration of 1 mg/mL. Subsequently, 120 μL of each peptide solution were incubated at 37 °C with 20 U of human leukocyte elastase (Merck) or P. aeruginosa elastase (Elastin Products Company, Owensville, MO, USA) and 5 μL of 10 mM Tris-HCl, pH 7.5. At given time intervals (30, 60, 120, and 300 min), a volume corresponding to 30 μg of each peptide was diluted in 70 μL of 1% trifluoroacetic acid (TFA) to stop the reaction. Peptide suspensions,v without any enzyme (undigested controls), were processed in parallel. Each solution was analyzed by RP-HPLC, using a Phenomenex LC C18 analytical column (300 Å, […], 250 × 4.6 mm; Phenomenex, Torrance, CA, USA) and a Widepore C18 security guard cartridge (4 × 3.0 mm; Phenomenex, Torrance, CA, USA), in a 30 min-linear Acetonitrile (ACN) gradient (from 0% to 40% for L- and D-Q53 CecB peptides; from 20% to 60% for LL-37). A Waters Alliance 2695 Separations Module connected to a 996 PDA (Waters, Milford, MA, USA) was employed for RP-HPLC.

[5] = test system: P. aeruginosa ATCC 27853 and ATCC 25668 strains; set-up: method as in PMID 31045339; details: planktonic forms; cited from earlier work
Text: (§2) We, therefore, determined the anti-Pseudomonas activity of D-Q53 CecB in comparison to the L- counterpart versus the planktonic forms of the same ATCC 27853 and ATCC 25668 strains, and a third POA1-L strain (Lausanne subline).

[6] = test system: P. aeruginosa (non-mucoid: ATCC 27853; mucoid: ATCC 25668); set-up: method as in PMID 31045339; details: planktonic forms; cited from earlier work
Text: as §2

## CC[C@@H](C)[C@@H](NC(=O)[C@@H](C)NC(=O)[C@@H](CCCCN)NC(=O)[C@@H](C)NC(=O)[C@@H](CO)NC(=O)CNC(=O)[C@@H](CC(C)C)NC(=O)[C@H](NC(=O)[C@@H](CCC(N)=O)NC(=O)[C@H](NC(=O)[C@@H](C)NC(=O)[C@H]1CCCN1C(=O)CNC(=O)[C@@H](C)NC(=O)[C@@H](CCCCN)NC(=O)[C@H](NC(=O)[C@H](NC(=O)CNC(=O)[C@@H](CC(=O)O)NC(=O)[C@@H](CCCNC(=N)N)NC(=O)[C@H](NC(=O)[C@@H](CC(N)=O)NC(=O)[C@@H](CCCNC(=N)N)NC(=O)CNC(=O)[C@@H](CCSC)NC(=O)[C@@H](CCCCN)NC(=O)[C@@H](CCC(=O)O)NC(=O)[C@H](NC(=O)[C@@H](CCCCN)NC(=O)[C@@H](CCCCN)NC(=O)[C@@H](Cc1ccccc1)NC(=O)[C@H](NC(=O)[C@@H](CCCCN)NC(=O)[C@@H](Cc1c[nH]c2ccccc12)NC(=O)[C@H](N)CCCNC(=N)N)[C@H](C)CC)[C@H](C)CC)[C@H](C)CC)[C@H](C)CC)C(C)C)[C@H](C)CC)C(C)C)C(N)=O [D-Q53 CecB] (H-[dR][dW][dK][dI][dF][dK][dK][dI][dE][dK][dM]G[dR][dN][dI][dR][dD]G[dI][dV][dK][dA]G[dP][dA][dI][dQ][dV][dL]G[dS][dA][dK][dA][dI]-NH2; N-terminus and C-terminus assumed)
[1]; 50 µM
  cell viability: ~ 85%
[1]; 100 µM
  cell viability: ~27%
[1]; 200 µM
  cell viability: ~4.5%
[2]
  IC50 at 24 h: 72.6 ± 2.81 µM
[2]; human
  IC50 at 24 h: 68 ± 3.71 µM
[3]; 50 µM
  cell viability: ~ 79%
[3]; 100 µM
  cell viability: ~15%

## RWKIFKKIEKMGRNIRDGIVKAGPAIQVLGSAKAI-NH2 [L-Q53 CecB]
[4]
  remaining at 0.5 h, 1 mg/mL: ~0.2%
[5]
  MBC: 11 µM
[6]
  MIC: 2.2 µM
